Patent publication US20070167412A1, “HALOCOMBSTATINS AND METHODS OF SYNTHESIS THEREOF” (ARIZONA BOARD OF REGENTS, priority 2003, published 2007)
Values after ≈ are worked out from the molar mass of the structure shown.

Key:
Cryptococcus neoformans = experiment: reference broth microdilution susceptibility assay; type: cell-based; settings: Table III
From the text: (§1) The halocombstatins of the present invention appear to also have antimicrobial properties. More specifically, they appear to have antifungal and/or antibacterial properties. Antimicrobial evaluation of the halocombstatins involved susceptibility testing performed by the reference broth microdilution assay. The antimicrobial activities of the halocombstatins were very similar, targeting Gram-positive bacteria and the pathogenic fungi Cryptococcus neoformans, and results are shown in Table III.
(§2) (See Pettit, G. R., et al., Antineoplastic Agents 463. Synthesis of Combretastatin A-3 Diphosphates, Anticancer Drug Design 2000, 15, 397-404.) To determine the antimicrobial activity of the present compounds, susceptibility testing was performed by the reference broth microdilution assay. (See National Committee for Clinical Laboratory Standards. Methods for Dilution Antimicrobial Susceptibility Tests for Bacteria that Grow Aerobically. Approved Standard M7-A5. Wayne, P A: NCCLS, 2000. National Committee for Clinical Laboratory Standards. Reference Method for Broth Dilution Antifungal Susceptibility Testing of Yeasts. Aproved Standard M27-A. Wayne, P A: NCCLS, 1997.) The antimicrobial activities of the halocombretastatins of the present invention were very similar, targeting Gram-positive bacteria and Cryptococcus neoformans. This is illustrated in further detail in Table III. Thus, several of the novel compounds of the present invention appear to have potential as antimicrobial agents, such as antifingals and antibacterials.

Escherichia coli = experiment: reference broth microdilution susceptibility assay; type: cell-based; settings: Table III
From the text: as §1, §2

[1] = system: Stenotrophomonas maltophilia; experiment: reference broth microdilution susceptibility assay; type: cell-based; settings: Table III
From the text: as §1, §2

Enterococcus faecalis = experiment: reference broth microdilution susceptibility assay; type: cell-based; settings: Table III
From the text: as §1, §2

Staphylococcus aureus = experiment: reference broth microdilution susceptibility assay; type: cell-based; settings: Table III
From the text: as §1, §2

Neisseria gonorrhoeae = experiment: reference broth microdilution susceptibility assay; type: cell-based; settings: Table III
From the text: as §1, §2

Candida albicans = experiment: reference broth microdilution susceptibility assay; type: cell-based; settings: Table III
From the text: as §1, §2

Micrococcus luteus = experiment: reference broth microdilution susceptibility assay; type: cell-based; settings: Table III
From the text: as §1, §2

Enterobacter cloacae = experiment: reference broth microdilution susceptibility assay; type: cell-based; settings: Table III
From the text: as §1, §2

Streptococcus pneumoniae = experiment: reference broth microdilution susceptibility assay; type: cell-based; settings: Table III
From the text: as §1, §2

Colon KM20L2 = experiment: human cancer cell growth inhibition, sulforhodamine B assay; type: cell-based; settings: Table I, 48 hours; for GI50: Homo sapiens, KM-20L2, read-out: Human cancer cell line inhibition (GI50) Colon KM20L2
Experimental: (§3) Inhibition of human cancer cell growth was assessed using the National Cancer Institute's standard sulforhodamine B assay. After 48 hours, the plates were fixed with trichloracetic acid, stained with sulforhodamine B and read with an automated microplate reader. […] Inhibition of the mouse leukemia P388 cells was assessed in a 10% horse serum/Fisher medium soution for 24 hours, followed by a 48 hour incubation with serial dilutions of the compounds. Cell growth inhibition (ED50) was then calculated using a Z1 Becleman/Coulter particle counter.

CNS SF268 = experiment: as above; type: cell-based; settings: Table I, 48 hours; for GI50: Homo sapiens, SF-268, read-out: Human cancer cell line inhibition (GI50) CNS SF268
Experimental: as §3

Breast MCF-7 = experiment: as above; type: cell-based; settings: Table I, 48 hours; for GI50: Homo sapiens, MCF7, read-out: Human cancer cell line inhibition (GI50) Breast adn MCF-7
Experimental: as §3

Lung-NSC NCI-H460 = experiment: as above; type: cell-based; settings: Table I, 48 hours; for GI50: Homo sapiens, NCI-H460, read-out: Human cancer cell line inhibition (GI50) Lung-NSC NCI-H460
Experimental: as §3

Prostate DU-145 = experiment: as above; type: cell-based; settings: Table I, 48 hours; for GI50: Homo sapiens, DU-145, read-out: Human cancer cell line inhibition (GI50) Prostate DU-145
Experimental: as §3

Pancreas BXPC-3 = experiment: as above; type: cell-based; settings: Table I, 48 hours; for GI50: Homo sapiens, BXPC-3, read-out: Human cancer cell line inhibition (GI50) Pancreas-a BXPC-3
Experimental: as §3

| melting point | Molecule | Range of minimum inhibitory concentration, Cryptococcus neoformans (Cryptococcus neoformans) | Range of minimum inhibitory concentration, Escherichia coli (Escherichia coli) | Range of minimum inhibitory concentration, Stenotrophomonas maltophilia [1] | Range of minimum inhibitory concentration, Enterococcus faecalis (Enterococcus faecalis) | Range of minimum inhibitory concentration, Staphylococcus aureus (Staphylococcus aureus) | Range of minimum inhibitory concentration, Neisseria gonorrhoeae (Neisseria gonorrhoeae) | Range of minimum inhibitory concentration, Candida albicans (Candida albicans) | Range of minimum inhibitory concentration, Micrococcus luteus (Micrococcus luteus) | Range of minimum inhibitory concentration, Enterobacter cloacae (Enterobacter cloacae) | Range of minimum inhibitory concentration, Streptococcus pneumoniae (Streptococcus pneumoniae) | GI50 (Colon KM20L2) | GI50 (CNS SF268) | GI50 (Breast MCF-7) | GI50 (Lung-NSC NCI-H460) | GI50 (Prostate DU-145) | GI50 (Pancreas BXPC-3) | further results |
| --- | --- | --- | --- | --- | --- | --- | --- | --- | --- | --- | --- | --- | --- | --- | --- | --- | --- | --- |
| 103 to 104 °C | COc1ccc(/C=C\c2cc(I)c(OC)c(OC)c2)cc1C(C)=O |  |  |  |  |  |  |  |  |  |  |  |  |  |  |  |  |  |
|  | 3-Fluoro-4,4′,5-trimethoy-3′-hydroxy-E-stilhene [Compound 11b] | 64 µg/mL | * (no inhibition at 64 μg/ml) | * (no inhibition at 64 μg/ml) | * (no inhibition at 64 μg/ml) | 32 to 64 µg/mL | 8 to 16 µg/mL | * (no inhibition at 64 μg/ml) | 16 to 32 µg/mL | * (no inhibition at 64 μg/ml) | 64 µg/mL |  |  |  |  |  |  | Human cancer cell line inhibition (GI50) Colon KM20L2 (Colon KM20L2): 0.53 µg/mL; Human cancer cell line inhibition (GI50) CNS SF268 (CNS SF268): 0.35 µg/mL; Human cancer cell line inhibition (GI50) Breast adn MCF-7 (Breast MCF-7): 0.051 µg/mL; Human cancer cell line inhibition (GI50) Lung-NSC NCI-H460 (Lung-NSC NCI-H460): 0.18 µg/mL; Human cancer cell line inhibition (GI50) Prostate DU-145 (Prostate DU-145): 0.18 µg/mL; Human cancer cell line inhibition (GI50) Pancreas-a BXPC-3 (Pancreas BXPC-3): 2.2 µg/mL |
| 138 to 140 °C | COc1ccc(/C=C/c2cc(Cl)c(OC)c(OC)c2)cc1O [Compound 12b, 3-Chloro-4,4′,5-trimethoxy-3′-hydroxy-E-stilbene] |  |  |  |  |  |  |  |  |  |  | 1.4 µg/mL (≈ 4.36 µM) | 0.048 µg/mL (≈ 0.15 µM) | 0.041 µg/mL (≈ 0.128 µM) | 0.034 µg/mL (≈ 0.106 µM) | 0.038 µg/mL (≈ 0.118 µM) | 0.59 µg/mL (≈ 1.84 µM) |  |

| Molecule | melting point | Range of minimum inhibitory concentration, Cryptococcus neoformans (Cryptococcus neoformans) | Range of minimum inhibitory concentration, Escherichia coli (Escherichia coli) | Range of minimum inhibitory concentration, Stenotrophomonas maltophilia [1] | Range of minimum inhibitory concentration, Enterococcus faecalis (Enterococcus faecalis) | Range of minimum inhibitory concentration, Staphylococcus aureus (Staphylococcus aureus) | Range of minimum inhibitory concentration, Neisseria gonorrhoeae (Neisseria gonorrhoeae) | Range of minimum inhibitory concentration, Candida albicans (Candida albicans) | Range of minimum inhibitory concentration, Micrococcus luteus (Micrococcus luteus) | Range of minimum inhibitory concentration, Enterobacter cloacae (Enterobacter cloacae) | Range of minimum inhibitory concentration, Streptococcus pneumoniae (Streptococcus pneumoniae) | GI50 (Colon KM20L2) | GI50 (CNS SF268) | GI50 (Breast MCF-7) | GI50 (Lung-NSC NCI-H460) | GI50 (Prostate DU-145) | GI50 (Pancreas BXPC-3) | further results |
| --- | --- | --- | --- | --- | --- | --- | --- | --- | --- | --- | --- | --- | --- | --- | --- | --- | --- | --- |
| COc1ccc(/C=C/c2cc(I)c(OC)c(OC)c2)cc1O [Compound 14b, 3-Iodo-4,4′,5-trimethoxy-3′-hydroxy-E-stilbene] | 111 to 113 °C | 64 µg/mL | * (no inhibition at 64 μg/ml) | * (no inhibition at 64 μg/ml) | * (no inhibition at 64 μg/ml) | 8 to 64 µg/mL | 4 to 16 µg/mL | * (no inhibition at 64 μg/ml) | 4 to 8 µg/mL | * (no inhibition at 64 μg/ml) | * (no inhibition at 64 μg/ml) | 1.7 µg/mL (≈ 4.12 µM) | 0.55 µg/mL (≈ 1.33 µM) | 0.18 µg/mL (≈ 0.437 µM) | 0.21 µg/mL (≈ 0.509 µM) | 0.27 µg/mL (≈ 0.655 µM) | 2.7 µg/mL (≈ 6.55 µM) |  |
